The term IC50 denotes the concentration that gives 50% inhibition.

Drawing on ChEMBL document CHEMBL3639238, “Hybrid cholinesterase inhibitors” (2014), this text covers IC50 for six compounds.

The target in one test is Acetylcholinesterase (Homo sapiens, UniProt P22303). The test can be described thus: (§1) Inhibition Assay: The biological activity of the compounds of general formula (I) towards the cholinesterase inhibition was evaluated using Ellman's method (Ellman, G. L.; Courtney, K. D.; Anders, B.; Featherstone, R. M. Biochem. Pharmacol. 1961, 7, 88-95).This method of evaluation of the cholinesterase inhibitors activity is based on the fact that acetyl/butyrylcholinesterase interacts with the inhibitor, which prevents the acetyl/butyrylcholine hydrolysis. The inhibitor causes the enzyme activity drop which is dependent on the inhibitor concentration. The enzyme unbound with the inhibitor is able to hydrolyze acetyl/butyrylthiocholine (ASCh/BSCh). The amount of the hydrolyzed ASCh/BSCh is measured indirectly, by quantification of the product of its reaction with DTNB (5,5â²-dithio-bis-2-nitrobenzoic acid). Ellman's method relies therefore on the spectrophotometric quantification of product of the reaction between […] and DTNB. Background: In Ellman's method for cholinesterases, released thiocholine reacts with DTNB.

Another test deals with Cholinesterase (Homo sapiens, UniProt P06276). Described as §1.
Chain of Cholinesterase (P06276 whole entry): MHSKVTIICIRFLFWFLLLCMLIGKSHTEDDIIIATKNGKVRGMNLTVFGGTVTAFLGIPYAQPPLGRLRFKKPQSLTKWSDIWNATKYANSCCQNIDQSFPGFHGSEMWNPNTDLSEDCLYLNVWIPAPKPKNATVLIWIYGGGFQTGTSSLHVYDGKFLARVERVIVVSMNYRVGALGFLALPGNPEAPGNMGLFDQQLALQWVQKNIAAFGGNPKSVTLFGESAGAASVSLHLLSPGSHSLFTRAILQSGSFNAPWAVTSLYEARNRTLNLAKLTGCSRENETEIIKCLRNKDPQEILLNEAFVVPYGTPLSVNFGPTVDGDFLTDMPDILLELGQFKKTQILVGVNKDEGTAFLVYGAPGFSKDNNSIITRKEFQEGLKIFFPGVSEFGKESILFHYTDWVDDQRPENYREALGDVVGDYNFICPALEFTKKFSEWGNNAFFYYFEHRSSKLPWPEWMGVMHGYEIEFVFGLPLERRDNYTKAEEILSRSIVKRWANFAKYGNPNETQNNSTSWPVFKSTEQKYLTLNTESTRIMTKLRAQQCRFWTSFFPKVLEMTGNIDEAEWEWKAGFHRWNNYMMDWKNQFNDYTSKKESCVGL

Chain of Acetylcholinesterase (P22303 whole entry): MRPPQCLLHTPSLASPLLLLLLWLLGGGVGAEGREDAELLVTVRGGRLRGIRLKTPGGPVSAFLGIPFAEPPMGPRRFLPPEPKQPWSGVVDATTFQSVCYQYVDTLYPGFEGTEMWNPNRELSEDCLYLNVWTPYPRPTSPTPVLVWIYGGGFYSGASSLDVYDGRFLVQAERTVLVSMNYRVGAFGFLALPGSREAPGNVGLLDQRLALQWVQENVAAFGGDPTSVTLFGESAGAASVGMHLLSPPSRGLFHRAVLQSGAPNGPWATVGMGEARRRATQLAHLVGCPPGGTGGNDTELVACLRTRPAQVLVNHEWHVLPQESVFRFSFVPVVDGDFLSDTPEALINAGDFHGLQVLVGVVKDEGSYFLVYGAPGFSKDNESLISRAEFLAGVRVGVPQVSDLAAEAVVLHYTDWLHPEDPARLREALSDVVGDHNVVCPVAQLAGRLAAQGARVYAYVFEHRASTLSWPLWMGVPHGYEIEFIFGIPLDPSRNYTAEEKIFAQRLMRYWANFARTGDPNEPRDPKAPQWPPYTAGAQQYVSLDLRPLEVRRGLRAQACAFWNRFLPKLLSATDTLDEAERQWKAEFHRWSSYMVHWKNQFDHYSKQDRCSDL

Turning to `CC(=O)NCCc1c[nH]c2ccc(OC(=O)NCCCCCCCNc3c4c(nc5cc(Cl)ccc35)CCCC4)cc12`, the IC50 on Acetylcholinesterase was 7.7 nM; at Cholinesterase it was 0.38 nM.
With `CC(=O)NCCc1c[nH]c2ccc(OC(=O)NCCNc3c4c(nc5cc(Cl)ccc35)CCCC4)cc12`, the IC50 at Acetylcholinesterase was determined as 20.1 nM; against Cholinesterase it was 34.5 nM.
Consider `CC(=O)NCCc1c[nH]c2ccc(OC(=O)NCCCCCCCCCCNc3c4c(nc5cc(Cl)ccc35)CCCC4)cc12`, for which the half-maximal inhibitory concentration (IC50) was determined as 8.1 nM against Acetylcholinesterase and 1.2 nM at Cholinesterase.
With `CC(=O)NCCc1c[nH]c2ccc(OC(=O)NCCNc3c4c(nc5ccc(Cl)cc35)CCCC4)cc12`, the IC50 came out at 3280 nM at Acetylcholinesterase and 8.2 nM against Cholinesterase.
Consider `CC(=O)NCCc1c[nH]c2ccc(OC(=O)NCCCCCCCNc3c4c(nc5ccc(Cl)cc35)CCCC4)cc12`, for which the IC50 on Acetylcholinesterase is 39.9 nM; at Cholinesterase, 0.88 nM.
Turning to `CC(=O)NCCc1c[nH]c2ccc(OC(=O)NCCCCCCCCCCCCNc3c4c(nc5cc(Cl)ccc35)CCCC4)cc12`, the IC50 turned out to be 25.6 nM on Acetylcholinesterase and 1.31 nM against Cholinesterase.
